# From patent US20250145606A1 (Arcus Biosciences, Inc., priority 2023, published 2025)
# Key:
# Details in all cases: biochemical, HTRF KinEASE-TK
# CSF1R = CSF1R (Homo sapiens (Human), UniProt P07333); assay: Inhibition of CSF1R kinase activity (HTRF KinEASE-TK)
# Description: (§1) Inhibition of c-Kit, PDGFRα, PDGFRβ, CSFIR and FLT3 Kinase Activity
# (§2) Compounds were evaluated to determine the potency with which they inhibit the kinase activity of the following panel of tyrosine kinases: c-Kit (SignalChem, Product #: K06-11BG), PDGFRα (SignalChem, Product #: P12-18G), PDGFRβ (SignalChem, Product #: P13-11G), CSFIR (SignalChem, Product #: C74-11G) and FLT3 (Invitrogen, Product #: PR4666C). Activity was determined as a function of phosphorylated biotinylated TK peptide generated by the transfer of phosphate from ATP as measured by the use of the HTRF KinEASE-TK assay kit (Cisbio, Product #: 62TKOPEJ). Levels of phosphorylated biotinylated TK peptide (Part 61TKOBLC of KinEASE assay kit) are quantified by its capture by phosphor-TK-Antibody-Cryptate (Part of KinEASE assay kit) and XL665-labeled Streptavidin (Part 610SAXLG of KinEASE assay kit) followed by measurement of Time-Resolved Fluorescence Resonance Energy Transfer (TR-FRET) signal. On the day of the assay, compounds were solubilized in DMSO and dispensed into a 384-well white Opti-plate (PerkinElmer, catalog #6007290) to generate a 22 point 1:2 titration. Enzyme solution was prepared for each of the tyrosine kinases in 50 mM HEPES, pH 7.4, 5 mM MgCl2 for c-Kit or 10 mM MgCl2 for FLT3, CSFIR, PDGFRa and PDGFRβ, 2 mM MnCl2, 0.01% Brij-35 and 0.01% BSA. Working enzyme concentrations were prepared for c-Kit at 2 nM (2×), PDGFRa and PDGFRß at 10 nM (2×), CSFIR at 2 nM (2×) and FLT3 at 0.4 nM (2×). Five microliters of enzyme dilution of each tyrosine kinase were added to their respective 384-well white Opti-plate pre-dispensed with compound and allowed to incubate for 1 h at rt. Utilizing the same enzyme buffer recipe, 2x substrate mixes were prepared for each enzyme as follows: For c-Kit, 1.6 μM (2×) TK substrate and 16 μM (2×) ATP (Promega, catalog #V915). For PDGFRα, 3.2 μM TK substrate and 1 μM ATP. For PDGFRβ, 3.2 μM TK substrate and 40 μM ATP. For CSFIR, […] TK substrate and 20 μM ATP. For FLT3, 3.2 μM TK substrate and 100 μM ATP. Reactions were initiated by addition of 5 μL of the respective 2x substrate mix to each well of the plates containing the respective tyrosine kinase enzymes and were allowed to proceed for 120 minutes at rt, except for FLT3, the reaction time is 45 min. Following the reaction, 10 μL of detection mix consisting of 0.2 μM (2×) of Streptavidin-XL665 and 2 μM (2×) of TK-Antibody-Cryptate prepared in detection buffer (Part 62SDBRDF of KinEASE assay kit) was added and then allowed to incubate for 60 min. The TR-FRET signal was quantified by measuring the ratio of emission at 665 nm to 620 nm after excitation at 320 nm by reading on a PerkinElmer Envision multimode reader. Compound potencies (IC50 values) were determined using a standard 4-parameter non-linear regression fit.
# PDGFRα = PDGFRα (Homo sapiens (Human), UniProt P16234); assay: Inhibition of PDGFRα kinase activity (HTRF KinEASE-TK)
# Sequence of PDGFRα (P16234 24-1089): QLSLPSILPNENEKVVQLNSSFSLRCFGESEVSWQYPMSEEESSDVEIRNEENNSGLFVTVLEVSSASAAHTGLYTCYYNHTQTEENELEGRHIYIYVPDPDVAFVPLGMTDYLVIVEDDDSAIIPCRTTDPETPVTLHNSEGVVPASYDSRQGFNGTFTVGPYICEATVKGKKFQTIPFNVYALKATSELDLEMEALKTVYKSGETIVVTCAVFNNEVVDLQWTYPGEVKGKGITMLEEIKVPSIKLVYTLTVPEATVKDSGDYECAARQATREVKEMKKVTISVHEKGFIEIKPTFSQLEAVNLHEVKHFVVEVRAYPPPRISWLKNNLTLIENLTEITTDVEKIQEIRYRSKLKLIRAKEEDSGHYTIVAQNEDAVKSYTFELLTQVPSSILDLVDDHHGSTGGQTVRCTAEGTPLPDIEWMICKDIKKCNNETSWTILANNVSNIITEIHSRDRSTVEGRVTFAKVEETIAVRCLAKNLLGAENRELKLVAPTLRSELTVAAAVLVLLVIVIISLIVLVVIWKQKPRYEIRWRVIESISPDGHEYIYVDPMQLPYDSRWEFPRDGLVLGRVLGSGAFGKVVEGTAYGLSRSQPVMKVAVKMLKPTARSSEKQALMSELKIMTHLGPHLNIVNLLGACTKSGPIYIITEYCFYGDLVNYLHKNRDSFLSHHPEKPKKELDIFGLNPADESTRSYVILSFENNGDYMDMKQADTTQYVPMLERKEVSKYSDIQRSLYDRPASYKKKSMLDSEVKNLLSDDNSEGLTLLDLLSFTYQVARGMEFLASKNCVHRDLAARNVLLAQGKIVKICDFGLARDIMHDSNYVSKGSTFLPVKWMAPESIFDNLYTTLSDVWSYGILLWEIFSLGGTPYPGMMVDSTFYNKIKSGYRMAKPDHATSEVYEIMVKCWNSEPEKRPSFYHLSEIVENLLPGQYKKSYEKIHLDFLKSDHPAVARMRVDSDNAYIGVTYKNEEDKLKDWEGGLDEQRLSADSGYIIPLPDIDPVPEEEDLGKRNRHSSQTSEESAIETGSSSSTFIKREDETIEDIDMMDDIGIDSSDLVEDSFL
# Description: as §1, §2
# c-Kit = c-Kit (Homo sapiens (Human), UniProt P10721); assay: Inhibition of c-Kit kinase activity (HTRF KinEASE-TK); type: biochemical
# Sequence of c-Kit (P10721 26-976): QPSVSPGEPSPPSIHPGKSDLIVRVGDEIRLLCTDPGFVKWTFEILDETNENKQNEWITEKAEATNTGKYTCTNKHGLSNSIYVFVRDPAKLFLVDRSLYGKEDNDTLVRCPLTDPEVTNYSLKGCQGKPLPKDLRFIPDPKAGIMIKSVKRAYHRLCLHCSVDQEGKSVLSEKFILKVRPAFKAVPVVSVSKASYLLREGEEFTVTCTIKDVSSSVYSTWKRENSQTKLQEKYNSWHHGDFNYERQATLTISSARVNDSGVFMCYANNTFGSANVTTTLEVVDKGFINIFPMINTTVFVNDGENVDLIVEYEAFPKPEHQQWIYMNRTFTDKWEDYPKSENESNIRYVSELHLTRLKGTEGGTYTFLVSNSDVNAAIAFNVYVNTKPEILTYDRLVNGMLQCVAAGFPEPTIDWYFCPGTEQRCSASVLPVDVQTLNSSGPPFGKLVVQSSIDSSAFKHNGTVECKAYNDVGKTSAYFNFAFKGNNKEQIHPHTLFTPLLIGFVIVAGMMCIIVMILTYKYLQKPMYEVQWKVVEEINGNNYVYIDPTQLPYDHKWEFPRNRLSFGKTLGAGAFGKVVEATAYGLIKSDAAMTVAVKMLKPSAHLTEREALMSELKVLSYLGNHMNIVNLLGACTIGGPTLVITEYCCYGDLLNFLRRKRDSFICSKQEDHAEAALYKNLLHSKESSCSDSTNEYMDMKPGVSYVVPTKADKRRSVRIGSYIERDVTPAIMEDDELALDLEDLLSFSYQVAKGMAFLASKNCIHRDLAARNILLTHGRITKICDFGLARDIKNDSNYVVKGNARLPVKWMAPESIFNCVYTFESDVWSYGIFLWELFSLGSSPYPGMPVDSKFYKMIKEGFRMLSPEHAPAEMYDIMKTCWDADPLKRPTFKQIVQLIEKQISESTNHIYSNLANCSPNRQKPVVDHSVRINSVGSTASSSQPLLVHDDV
# Description: as §1, §2
# PDGFRβ = PDGFRβ (Homo sapiens (Human), UniProt P09619); assay: Inhibition of PDGFRβ kinase activity (HTRF KinEASE-TK)
# Sequence of PDGFRβ (P09619 33-1106): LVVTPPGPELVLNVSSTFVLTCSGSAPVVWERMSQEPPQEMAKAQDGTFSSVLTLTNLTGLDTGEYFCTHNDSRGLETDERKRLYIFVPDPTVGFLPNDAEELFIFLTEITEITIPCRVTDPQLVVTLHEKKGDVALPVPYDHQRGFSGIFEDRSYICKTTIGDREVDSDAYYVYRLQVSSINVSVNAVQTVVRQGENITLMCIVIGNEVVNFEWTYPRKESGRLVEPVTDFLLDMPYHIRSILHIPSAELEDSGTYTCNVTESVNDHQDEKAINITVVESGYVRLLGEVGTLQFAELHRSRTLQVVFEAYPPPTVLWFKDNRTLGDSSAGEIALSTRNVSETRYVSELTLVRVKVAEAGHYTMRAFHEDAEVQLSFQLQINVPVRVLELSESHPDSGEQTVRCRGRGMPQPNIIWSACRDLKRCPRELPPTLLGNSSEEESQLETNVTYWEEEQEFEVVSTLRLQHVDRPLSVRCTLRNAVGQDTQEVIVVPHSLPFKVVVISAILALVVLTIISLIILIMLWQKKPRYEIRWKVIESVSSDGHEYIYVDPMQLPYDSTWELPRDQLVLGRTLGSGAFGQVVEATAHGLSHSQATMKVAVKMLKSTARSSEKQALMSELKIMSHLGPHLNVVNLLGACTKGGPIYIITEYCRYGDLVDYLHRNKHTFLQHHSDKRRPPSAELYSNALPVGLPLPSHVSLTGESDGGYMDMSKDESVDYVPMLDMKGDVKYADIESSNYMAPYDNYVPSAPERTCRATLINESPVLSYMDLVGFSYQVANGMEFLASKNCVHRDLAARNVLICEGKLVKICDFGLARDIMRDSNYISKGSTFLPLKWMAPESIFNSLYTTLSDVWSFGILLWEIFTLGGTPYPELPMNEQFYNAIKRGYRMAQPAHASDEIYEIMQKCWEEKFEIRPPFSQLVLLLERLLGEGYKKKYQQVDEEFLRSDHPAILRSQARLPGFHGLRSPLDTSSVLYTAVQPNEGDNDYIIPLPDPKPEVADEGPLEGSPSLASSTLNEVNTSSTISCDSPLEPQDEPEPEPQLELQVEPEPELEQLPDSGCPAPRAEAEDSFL
# Description: as §1, §2
# Sequence of CSF1R (P07333 20-972): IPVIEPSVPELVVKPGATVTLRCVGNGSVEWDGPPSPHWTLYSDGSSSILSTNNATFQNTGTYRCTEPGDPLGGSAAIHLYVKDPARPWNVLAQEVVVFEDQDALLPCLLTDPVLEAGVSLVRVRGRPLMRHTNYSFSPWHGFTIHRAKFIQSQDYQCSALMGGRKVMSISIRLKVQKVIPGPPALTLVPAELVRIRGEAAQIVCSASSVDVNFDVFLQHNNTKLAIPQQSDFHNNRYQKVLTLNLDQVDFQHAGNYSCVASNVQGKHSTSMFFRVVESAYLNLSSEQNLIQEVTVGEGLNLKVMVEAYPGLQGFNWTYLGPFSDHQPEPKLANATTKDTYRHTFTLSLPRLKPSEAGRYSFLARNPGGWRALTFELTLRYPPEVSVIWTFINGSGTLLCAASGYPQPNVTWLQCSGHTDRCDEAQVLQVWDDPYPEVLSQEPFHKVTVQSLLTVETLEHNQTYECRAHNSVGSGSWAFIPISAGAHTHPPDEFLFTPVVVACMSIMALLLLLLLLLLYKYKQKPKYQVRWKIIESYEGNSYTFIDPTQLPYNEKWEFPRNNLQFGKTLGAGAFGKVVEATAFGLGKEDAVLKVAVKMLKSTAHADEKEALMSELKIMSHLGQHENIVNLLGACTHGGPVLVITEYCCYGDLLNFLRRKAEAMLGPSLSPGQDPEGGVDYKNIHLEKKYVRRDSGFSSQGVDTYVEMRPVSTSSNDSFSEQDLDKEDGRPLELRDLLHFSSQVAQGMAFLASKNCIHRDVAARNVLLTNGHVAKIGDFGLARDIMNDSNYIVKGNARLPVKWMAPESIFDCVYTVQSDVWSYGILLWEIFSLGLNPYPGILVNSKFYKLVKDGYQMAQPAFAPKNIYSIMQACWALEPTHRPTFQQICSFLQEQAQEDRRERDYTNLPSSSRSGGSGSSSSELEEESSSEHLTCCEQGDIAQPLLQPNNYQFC
IC50 (CSF1R),IC50 (PDGFRα),IC50 (c-Kit),IC50 (PDGFRβ),Structure (SMILES)
> 1 µM,> 1 µM,< 0.1 µM,> 1 µM,"Cc1cc(F)c(C(=O)Nc2cc3n(n2)CCN(C)C3)cc1NC(=O)c1cnc(N)s1 [Example 180, 2-Amino-N-[4-fluoro-2-methyl-5-[(5-methyl-6,7-dihydro-4H-pyrazolo[1,5-a]pyrazin-2-yl)carbamoyl]phenyl]-1,3-thiazole-5-carboxamide]"
< 0.1 µM,< 0.1 µM,< 0.1 µM,< 0.1 µM,"Cc1cc(F)c(C(=O)Nc2ccc(C(C)(O)C(F)(F)F)cn2)cc1NC(=O)c1cnc(N)s1 (stereo not drawn) [Example 111, 2-Amino-N-[4-fluoro-2-methyl-5-[[5-(1,1,1-trifluoro-2-hydroxypropan-2-yl)pyridin-2-yl]carbamoyl]phenyl]-1,3-thiazole-5-carboxamide]"
> 1 µM,> 1 µM,0.1 to 1 µM,> 1 µM,"Cc1cc(F)c(C(=O)Nc2ncn(C)n2)cc1NC(=O)c1cnc(N)s1 [Example 174, 2-Amino-N-[4-fluoro-2-methyl-5-[(1-methyl-1,2,4-triazol-3-yl)carbamoyl]phenyl]-1,3-thiazole-5-carboxamide]"
0.1 to 1 µM,> 1 µM,< 0.1 µM,0.1 to 1 µM,"Cc1cc(F)c(C(=O)Nc2nc3c(s2)COCC3)cc1NC(=O)c1cnc(N)s1 [Example 145, 2-Amino-N-[5-(6,7-dihydro-4H-pyrano[4,3-d][1,3]thiazol-2-ylcarbamoyl)-4-fluoro-2-methylphenyl]-1,3-thiazole-5-carboxamide]"
0.1 to 1 µM,0.1 to 1 µM,< 0.1 µM,< 0.1 µM,Cc1cc(F)c(C(=O)NCCc2ccc(F)cc2)cc1NC(=O)c1cnc(N)s1 [Example 165]
> 1 µM,> 1 µM,< 0.1 µM,0.1 to 1 µM,"Cc1cc(Cl)c(C(=O)Nc2ccc(OC3CC3)cn2)cc1NC(=O)c1cnc(N)s1 [Example 224, 2-Amino-N-[4-chloro-5-[(5-cyclopropyloxypyridin-2-yl)carbamoyl]-2-methylphenyl]-1,3-thiazole-5-carboxamide]"
0.1 to 1 µM,> 1 µM,< 0.1 µM,0.1 to 1 µM,"Cc1cc(F)c(C(=O)Nc2ccc(CN3CCN(C)CC3)cn2)cc1NC(=O)c1cnc(N)s1 [Example 247, 2-Amino-N-[4-fluoro-2-methyl-5-[[5-[(4-methylpiperazin-1-yl)methyl]pyridin-2-yl]carbamoyl]phenyl]-1,3-thiazole-5-carboxamide]"
> 1 µM,> 1 µM,0.1 to 1 µM,> 1 µM,"Cc1cc(F)c(C(=O)Nc2nc(C)n(C)n2)cc1NC(=O)c1cnc(N)s1 [Example 173, 2-Amino-N-[5-[(1,5-dimethyl-1,2,4-triazol-3-yl)carbamoyl]-4-fluoro-2-methylphenyl]-1,3-thiazole-5-carboxamide]"
> 1 µM,> 1 µM,0.1 to 1 µM,> 1 µM,"Cc1ncc(C(=O)Nc2cc(C(=O)Nc3ccn(C(F)F)n3)c(F)cc2C)s1 [Example 69, N-[5-[[1-(difluoromethyl)pyrazol-3-yl]carbamoyl]-4-fluoro-2-methylphenyl]-2-methyl-1,3-thiazole-5-carboxamide]"
> 1 µM,> 1 µM,0.1 to 1 µM,> 1 µM,"CO[C@H]1C[C@@H](n2nccc2NC(=O)c2cc(NC(=O)c3cnc(N)s3)c(C)cc2F)C1 [Example 186, 2-Amino-N-[4-fluoro-5-[[2-(cis-3-methoxycyclobutyl)pyrazol-3-yl]carbamoyl]-2-methylphenyl]-1,3-thiazole-5-carboxamide]"
> 1 µM,> 1 µM,< 0.1 µM,> 1 µM,"Cc1cc(F)c(C(=O)Nc2ccn(CC(C)(C)O)n2)cc1NC(=O)c1cnc(N)s1 [Example 153, 2-Amino-N-[4-fluoro-5-[[1-(2-hydroxy-2-methylpropyl)pyrazol-3-yl]carbamoyl]-2-methylphenyl]-1,3-thiazole-5-carboxamide]"
> 1 µM,> 1 µM,0.1 to 1 µM,> 1 µM,"Cc1ncc(C(=O)Nc2cc(C(=O)NCC3(F)CCC3)c(F)cc2C)s1 [Example 68, N-[4-Fluoro-5-[(1-fluorocyclobutyl)methylcarbamoyl]-2-methylphenyl]-2-methyl-1,3-thiazole-5-carboxamide]"
> 1 µM,> 1 µM,0.1 to 1 µM,> 1 µM,"Cc1cc(F)c(NC(=O)c2cnc(N)s2)cc1C(=O)Nc1ccc(OC2CC2)cn1 [Example 223, 2-Amino-N-[5-[(5-cyclopropyloxypyridin-2-yl)carbamoyl]-2-fluoro-4-methylphenyl]-1,3-thiazole-5-carboxamide]"
< 0.1 µM,< 0.1 µM,< 0.1 µM,< 0.1 µM,"Cc1c(F)cc(C(=O)Nc2ccc(OC3CC3)cn2)cc1NC(=O)c1cnc(N)s1 [Example 243, 2-Amino-N-[5-[(5-cyclopropyloxypyridin-2-yl)carbamoyl]-3-fluoro-2-methylphenyl]-1,3-thiazole-5-carboxamide]"
0.1 to 1 µM,0.1 to 1 µM,< 0.1 µM,< 0.1 µM,"Cc1cc(F)c(C(=O)Nc2ccc(C(F)C(F)(F)F)cn2)cc1NC(=O)c1cnc(N)s1 (stereo not drawn) [Example 225, 2-Amino-N-[4-fluoro-2-methyl-5-[[5-(1,2,2,2-tetrafluoroethyl)pyridin-2-yl]carbamoyl]phenyl]-1,3-thiazole-5-carboxamide]"
0.1 to 1 µM,> 1 µM,< 0.1 µM,> 1 µM,"Cc1cc(F)c(C(=O)Nc2cccc(F)c2)cc1NC(=O)c1cnc(N)s1 [Example 232, 2-Amino-N-[4-fluoro-5-[(3-fluorophenyl)carbamoyl]-2-methylphenyl]-1,3-thiazole-5-carboxamide]"
> 1 µM,> 1 µM,< 0.1 µM,> 1 µM,"Cc1ncc(C(=O)Nc2cc(C(=O)Nc3ccc(C4CC4)nn3)c(F)cc2C)s1 [Example 35, N-[5-[(6-cyclopropylpyridazin-3-yl)carbamoyl]-4-fluoro-2-methylphenyl]-2-methyl-1,3-thiazole-5-carboxamide]"
> 1 µM,> 1 µM,< 0.1 µM,> 1 µM,"Cc1cc(F)c(C(=O)Nc2ccc(OC3CC3)cn2)cc1NC(=O)c1cncs1 [Example 169, N-[5-[(5-Cyclopropyloxypyridin-2-yl)carbamoyl]-4-fluoro-2-methylphenyl]-1,3-thiazole-5-carboxamide]"
> 1 µM,> 1 µM,< 0.1 µM,> 1 µM,"Cc1cc(F)c(C(=O)NC2CN(c3ncccn3)C2)cc1NC(=O)c1cnc(N)s1 [Example 125, 2-Amino-N-[4-fluoro-2-methyl-5-[(1-pyrimidin-2-ylazetidin-3-yl)carbamoyl]phenyl]-1,3-thiazole-5-carboxamide]"
> 1 µM,> 1 µM,< 0.1 µM,> 1 µM,"Cc1cc(F)c(C(=O)Nc2ccc(OC3COC4(CC4)C3)cn2)cc1NC(=O)c1cnc(N)s1 (stereo not drawn) [Example 199, 2-Amino-N-[4-fluoro-2-methyl-5-[[5-(4-oxaspiro[2.4]heptan-6-yloxy)pyridin-2-yl]carbamoyl]phenyl]-1,3-thiazole-5-carboxamide]"

Structure (SMILES),IC50 (CSF1R),IC50 (PDGFRα),IC50 (c-Kit),IC50 (PDGFRβ)
"Cc1cc(F)c(C(=O)Nc2ccc(OC3CC3)cn2)cc1NC(=O)c1cnc(NCC(F)F)s1 [Example 235, N-[5-[(5-cyclopropyloxypyridin-2-yl)carbamoyl]-4-fluoro-2-methylphenyl]-2-(2,2-difluoroethylamino)-1,3-thiazole-5-carboxamide]",> 1 µM,> 1 µM,< 0.1 µM,0.1 to 1 µM
